Results published in publication PMC10298982, “Stability Characterization of the Novel Anti-Cancer HM-10/10 HDL-Mimetic Peptide” (International Journal of Molecular Sciences, 2023).
Values joined by “and” are separate entries in the source; they are usually repeats but may differ in a detail not shown here. Identical values can stand only once. Ends that are not written are not given here.

Assays:
[1] = in vitro; conditions: Sprague-Dawley, rat, plasma, pH 7.4
[2] = tested on: human plasma proteins; test: Protein binding in human plasma (ultracentrifugation); format: in vitro ADME; conditions: Human plasma (K2EDTA); 2 μM; 2.5 h at 37 °C

- half-life at 2 µM [1]: 1.38 h
- remaining at 2 h, 2 µM [1]: 36.3%
- % Protein Bound Mean ± SD [2]: 79.7% and 79.7 ± 5.5%
- % Protein Free Mean ± SD [2]: 20.3 ± 5.5%
Sequence: LRKLRKRLLRLVGRQLEEFL [HM-10/10, LRKLRKRLLRLVGRQLEEFL]
